From publication PMC5588088, “Topological Dissection of the Membrane Transport Protein Mhp1 Derived from Cysteine Accessibility and Mass Spectrometry” (Analytical Chemistry, 2017)

Tests used:
Mhp1 [1] = biological target: T1, Mhp1 (Microbacterium maritypicum, UniProt D6R8X8); test: tryptophan fluorescence quenching titration; assay type: binding; settings: 140 mM NaCl (also 15 and 1000 mM)
T1 construct: gene hyuP; full-length wild type with C-terminal His6 tag, purified in DDM

Mhp1 [2] = biological target: T1, Mhp1; test: NEM labelling of Cys327 with intact mass spectrometry, protection by ligand; assay type: binding; settings: 140 mM Na+, pH 8, 25 °C, 0.05% DDM

T1 sequence (D6R8X8 whole entry): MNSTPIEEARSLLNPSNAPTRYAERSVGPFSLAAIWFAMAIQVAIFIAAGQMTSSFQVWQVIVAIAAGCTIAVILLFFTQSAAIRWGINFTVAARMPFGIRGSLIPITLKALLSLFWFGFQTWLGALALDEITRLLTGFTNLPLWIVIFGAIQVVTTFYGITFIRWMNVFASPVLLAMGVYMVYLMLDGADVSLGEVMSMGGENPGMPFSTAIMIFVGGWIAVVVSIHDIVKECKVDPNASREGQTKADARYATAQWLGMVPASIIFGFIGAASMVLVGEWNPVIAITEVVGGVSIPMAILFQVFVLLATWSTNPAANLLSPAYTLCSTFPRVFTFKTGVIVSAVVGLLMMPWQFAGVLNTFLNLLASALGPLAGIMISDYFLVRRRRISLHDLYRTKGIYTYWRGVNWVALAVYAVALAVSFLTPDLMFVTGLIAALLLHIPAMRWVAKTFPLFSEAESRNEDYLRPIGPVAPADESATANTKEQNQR

| reduction in NEM labeling at 2 mM (Mhp1 [2]) | Structure (SMILES) | Kd app (Mhp1 [1]) |
| --- | --- | --- |
| – | O=C1NC(=O)[C@H](Cc2ccccc2)N1 [L-BH, 5-benzyl-L-hydantoin] | Tryptophan fluorescence quenching of Mhp1 upon titration with L-BH |
| 5-indolylmethyl-L-hydantoin (L-IMH) | O=C1NC(=O)[C@H](Cc2c[nH]c3ccccc23)N1 [L-IMH, 5-indolylmethyl-L-hydantoin] | – |
